Experiment: xn = mol fraction of the nth substance listed

O=C1OCCO1 + O
298.15 K, 101 kPa
Settings	viscosity [mPa·s]
x1 = 0.0166	0.955
x1 = 0.0221	0.968
x1 = 0.0415	1.038
x1 = 0.0635	1.096
x1 = 0.0897	1.172
x1 = 0.1194	1.253
x1 = 0.1403	1.309
x1 = 0.1625	1.377
x1 = 0.2345	1.519
x1 = 0.3229	1.647
x1 = 0.3784	1.704
x1 = 0.4412	1.751
x1 = 0.5409	1.831
x1 = 0.6443	1.898

CCCCCOC(C)=O + CCCCCO
viscosity [mPa·s], 101.33 kPa
Settings	x1 = 0.0982	x1 = 0.1951	x1 = 0.3024	x1 = 0.4009	x1 = 0.5015	x1 = 0.6044	x1 = 0.7081	x1 = 0.8063	x1 = 0.9007
293.15 K	3.552	3.076	2.623	2.266	1.952	1.675	1.436	1.241	1.079
303.15 K	2.583	2.279	1.984	1.747	1.534	1.343	1.174	1.034	0.915
313.15 K	2.039	1.811	1.588	1.407	1.244	1.097	0.966	0.857	0.763
323.15 K	1.198	1.103	1.001	0.924	0.847	0.776	0.709	0.652	0.601

O=C(O)CO + OC[C@@H](O)[C@H](O)[C@@H](O)CO
101.33 kPa, x2 = 0.25
Settings	viscosity [mPa·s]
303.15 K	937
313.15 K	446.3
323.15 K	208.9

CCCCCOC(C)=O + CCCCOC(C)=O
298.15 K, 101.33 kPa
Settings	viscosity [mPa·s]
x2 = 0.1116	0.834
x2 = 0.2559	0.81
x2 = 0.3941	0.787
x2 = 0.5285	0.76
x2 = 0.6578	0.738
x2 = 0.7859	0.715
x2 = 0.9088	0.694

CC(C)CO + C1CCCCC1
303.15 K, 101.33 kPa
Settings	viscosity [mPa·s]
x2 = 0.1485	1.976
x2 = 0.2985	1.513
x2 = 0.4515	1.185
x2 = 0.6051	0.962
x2 = 0.7417	0.839
x2 = 0.8981	0.762

CCCCCC + CO
298.15 K, 101.33 kPa
Settings	viscosity [mPa·s]
x2 = 0.0532	0.313
x2 = 0.0601	0.313
x2 = 0.138	0.317
x2 = 0.154	0.319
x2 = 0.2491	0.334
x2 = 0.8139	0.49
x2 = 0.8529	0.502
x2 = 0.8644	0.506
x2 = 0.9199	0.525
x2 = 0.9494	0.539
x2 = 0.9771	0.547

CCCCCOC(C)=O + CCc1ccccc1
Settings	viscosity [mPa·s]
298.15 K, 101 kPa, x2 = 0.089	0.7697

CCOC(=O)CC + ClC(Cl)C(Cl)Cl
viscosity [mPa·s], 101.3 kPa
Settings	308.15 K	318.15 K
x1 = 0.0486	1.333	1.203
x1 = 0.0999	1.261	1.128
x1 = 0.2025	1.127	0.996
x1 = 0.2997	1.013	0.888
x1 = 0.3983	0.922	0.794
x1 = 0.5003	0.817	0.71
x1 = 0.5986	0.714	0.64
x1 = 0.7023	0.617	0.576
x1 = 0.801	0.583	0.523
x1 = 0.9018	0.521	0.476
x1 = 0.951	0.493	0.455

O=C1CCCN1C1CCCCC1 + O=C1CCCN1
298.15 K, 100 kPa
Settings	viscosity [mPa·s]
x1 = 0.0107	13.4
x2 = 0.0201	10.5
x2 = 0.0289	10.56
x2 = 0.0403	10.66
x2 = 0.0491	10.72
x2 = 0.0694	10.86
x2 = 0.08	10.94
x2 = 0.0913	11.02
x2 = 0.0973	11.06
x2 = 0.1019	11.11
x2 = 0.1982	11.73
x2 = 0.2954	12.31
x2 = 0.3091	12.44
x2 = 0.389	12.77
x2 = 0.4916	13.18
x2 = 0.602	13.5
x2 = 0.7053	13.64
x2 = 0.8042	13.66
x2 = 0.902	13.66
x2 = 0.9031	13.63
x2 = 0.9108	13.62
x2 = 0.9153	13.63
x2 = 0.9306	13.59
x2 = 0.9503	13.56
x2 = 0.9597	13.54
x2 = 0.9696	13.49
x2 = 0.979	13.45

C=CC(=O)OC + CCCCCCO
viscosity [mPa·s], 101.33 kPa
Settings	308.15 K	318.15 K
x1 = 0.0466	2.892	2.186
x1 = 0.149	2.128	1.687
x1 = 0.2479	1.616	1.331
x1 = 0.3487	1.247	1.059
x1 = 0.4466	0.989	0.859
x1 = 0.4989	0.881	0.772
x1 = 0.5479	0.795	0.701
x1 = 0.6418	0.662	0.588
x1 = 0.7501	0.549	0.486
x1 = 0.8501	0.472	0.414
x1 = 0.9438	0.417	0.36

C=CC(=O)OC + c1ccccc1
viscosity [mPa·s], 101 kPa
Settings	x2 = 0.105	x2 = 0.2191	x2 = 0.3452	x2 = 0.4069	x2 = 0.5314	x2 = 0.6457	x2 = 0.714	x2 = 0.7852	x2 = 0.8977
298.15 K	0.472	0.485	0.501	0.509	0.526	0.543	0.554	0.565	0.585
303.15 K	0.433	0.447	0.462	0.47	0.488	0.505	0.515	0.526	0.545
308.15 K	0.398	0.412	0.428	0.436	0.453	0.47	0.481	0.492	0.51
313.15 K	0.369	0.382	0.392	0.403	0.418	0.433	0.442	0.452	0.467

CCCCCCCCCCCCCC(=O)OC + CCC1CCCCC1
viscosity [mPa·s], 100 kPa
Settings	x2 = 0.1016	x2 = 0.2015	x2 = 0.3	x2 = 0.4021	x2 = 0.4997	x2 = 0.6005	x2 = 0.7005	x2 = 0.7999	x2 = 0.9
293.15 K	4.029	3.57	3.134	2.705	2.312	1.944	1.626	1.342	1.089
298.15 K	3.577	3.181	2.785	2.419	2.079	1.774	1.489	1.237	1.009
303.15 K	3.173	2.839	2.508	2.191	1.893	1.616	1.367	1.14	0.935
308.15 K	2.804	2.513	2.231	1.948	1.701	1.469	1.248	1.045	0.862
313.15 K	2.532	2.282	2.035	1.797	1.578	1.362	1.163	0.978	0.812
318.15 K	2.328	2.104	1.887	1.666	1.469	1.277	1.097	0.93	0.772
323.15 K	2.1	1.912	1.724	1.541	1.361	1.184	1.018	0.866	0.723

Source: the CheMixHub viscosity set
